Measured values as given in ChEMBL document CHEMBL1201862, “PubChem BioAssay data set” (2004).
Activity calls are given as the source filed them. For most assays here, no stated cut-off is given here; in the data, actives have a measured EC50 and inactives only a lower limit.

How the values were obtained:
[1] = HEK-293T viability loss after treatment – luminescence, T-cell screen hits, cytotoxicity control for TCR NF-kB inhibitor project, dose response (AID 489026); assay type: functional, cell-based;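 further: cells exposed to compound about 14 hours before the viability readout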
cells [2] = assay type: functional, cell-based
cells [3] = assay type: functional, cell-based; remark: listed apart in the source
[4] = target: T1, Replicative DNA helicase DnaB (Mycobacterium tuberculosis, UniProt P9WMR3); test: DnaB intein splicing inhibitors, dose response, biochemical, cell-free fluorescence (AID 449749); assay type: functional
T1 sequence (P9WMR3 whole entry): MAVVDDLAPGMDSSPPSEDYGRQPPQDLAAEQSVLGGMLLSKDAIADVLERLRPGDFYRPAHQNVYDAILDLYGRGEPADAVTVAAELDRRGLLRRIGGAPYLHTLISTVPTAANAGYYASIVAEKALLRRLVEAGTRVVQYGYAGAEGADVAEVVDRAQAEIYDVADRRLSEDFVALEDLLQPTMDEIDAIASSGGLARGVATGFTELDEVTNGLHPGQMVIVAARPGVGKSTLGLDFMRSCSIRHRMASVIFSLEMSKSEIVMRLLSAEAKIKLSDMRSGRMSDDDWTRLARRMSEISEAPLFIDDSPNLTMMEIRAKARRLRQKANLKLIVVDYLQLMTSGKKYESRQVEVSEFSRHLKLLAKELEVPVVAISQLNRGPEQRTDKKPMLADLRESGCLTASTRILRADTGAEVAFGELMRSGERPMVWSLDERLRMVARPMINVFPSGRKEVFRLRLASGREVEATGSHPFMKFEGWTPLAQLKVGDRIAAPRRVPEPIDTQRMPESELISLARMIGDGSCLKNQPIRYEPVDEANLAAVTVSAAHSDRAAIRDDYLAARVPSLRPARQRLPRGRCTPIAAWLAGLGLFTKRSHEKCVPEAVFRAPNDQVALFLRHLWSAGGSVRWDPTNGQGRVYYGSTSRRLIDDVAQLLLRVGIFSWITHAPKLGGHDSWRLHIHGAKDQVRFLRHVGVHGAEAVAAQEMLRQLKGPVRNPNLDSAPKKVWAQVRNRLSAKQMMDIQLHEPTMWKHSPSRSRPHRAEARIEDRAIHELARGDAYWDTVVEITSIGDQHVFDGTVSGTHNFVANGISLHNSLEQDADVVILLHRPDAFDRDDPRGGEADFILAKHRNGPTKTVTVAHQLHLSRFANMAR

Protein RecA = target: T2, Protein RecA (Mycobacterium tuberculosis, UniProt P9WHJ3); test: Fluorescence Cell-Free Homogeneous Dose Retest to Identify Inhibitors of RecA-Intein Splicing Activity. [Related pubchem assays (depositor defined):AID2097, AID2223, AID489010, AID492950]; assay type: functional
T2 sequence (P9WHJ3 whole entry): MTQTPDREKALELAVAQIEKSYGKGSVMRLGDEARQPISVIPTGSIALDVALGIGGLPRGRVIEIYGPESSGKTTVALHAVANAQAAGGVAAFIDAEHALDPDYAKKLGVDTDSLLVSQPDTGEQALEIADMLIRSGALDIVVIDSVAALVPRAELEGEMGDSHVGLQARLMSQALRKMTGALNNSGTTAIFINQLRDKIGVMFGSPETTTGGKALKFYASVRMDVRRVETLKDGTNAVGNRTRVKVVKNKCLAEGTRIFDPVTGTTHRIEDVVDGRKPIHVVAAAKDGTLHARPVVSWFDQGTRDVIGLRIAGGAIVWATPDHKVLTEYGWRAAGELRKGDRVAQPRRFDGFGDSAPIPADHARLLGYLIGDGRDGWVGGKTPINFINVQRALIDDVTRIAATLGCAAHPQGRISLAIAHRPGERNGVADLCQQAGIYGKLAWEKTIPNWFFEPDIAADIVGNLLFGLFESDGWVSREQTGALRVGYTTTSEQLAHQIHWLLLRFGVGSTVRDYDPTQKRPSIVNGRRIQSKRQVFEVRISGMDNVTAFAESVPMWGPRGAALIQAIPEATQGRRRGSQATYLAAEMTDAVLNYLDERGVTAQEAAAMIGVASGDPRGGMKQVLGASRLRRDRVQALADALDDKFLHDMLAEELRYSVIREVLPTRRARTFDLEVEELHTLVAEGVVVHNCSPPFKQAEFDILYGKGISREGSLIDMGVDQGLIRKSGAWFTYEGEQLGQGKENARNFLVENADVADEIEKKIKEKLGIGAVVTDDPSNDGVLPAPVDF

Coagulation factor XII = target: T3, Coagulation factor XII (Homo sapiens, UniProt P00748); assay type: functional;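 further: activated factor XIIa alpha cleaving a fluorogenic AMC peptide substrate; inhibitor potency from loss of enzyme activity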
T3 sequence (P00748 whole entry): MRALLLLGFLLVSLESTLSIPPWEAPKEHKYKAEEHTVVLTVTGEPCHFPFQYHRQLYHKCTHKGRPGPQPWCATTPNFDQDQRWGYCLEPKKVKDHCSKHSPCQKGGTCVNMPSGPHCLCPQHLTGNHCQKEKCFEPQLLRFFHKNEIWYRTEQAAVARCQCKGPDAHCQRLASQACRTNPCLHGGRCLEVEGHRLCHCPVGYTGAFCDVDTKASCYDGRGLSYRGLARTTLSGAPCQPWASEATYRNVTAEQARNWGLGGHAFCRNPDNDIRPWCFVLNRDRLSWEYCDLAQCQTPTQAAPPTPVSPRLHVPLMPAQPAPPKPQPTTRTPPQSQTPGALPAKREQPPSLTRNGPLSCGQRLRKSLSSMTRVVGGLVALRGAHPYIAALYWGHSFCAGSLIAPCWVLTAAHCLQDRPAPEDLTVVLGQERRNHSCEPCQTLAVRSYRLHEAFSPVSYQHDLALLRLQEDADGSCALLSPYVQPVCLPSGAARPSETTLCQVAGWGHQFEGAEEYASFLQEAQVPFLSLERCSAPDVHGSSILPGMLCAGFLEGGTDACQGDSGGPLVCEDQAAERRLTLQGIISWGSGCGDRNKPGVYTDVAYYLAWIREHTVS

[5] = Luminescence Cell-Based Dose Retest to Confirm Inhibitors of Cancer Stem Cells. [Related pubchem assays (depositor defined):AID2717, AID2721]; assay type: functional; details: Homo sapiens
INS1 = test: INS-1E survival protection against cytokine death – cell-based, luminescence, retest, dose response (AID 449756); assay type: functional; details: Rattus norvegicus;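 further: cell death triggered by IL-1 beta plus TNF-alpha plus IFN-gamma mixture; protective hits raise ATP signal compared with cytokine alone wells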
[6] = reduction of Shn3 3'UTR-driven luciferase in osteoblasts – cell-based, Clone20 osteoblasts, firefly luciferase, cherry-picked, dose response (AID 624132); assay type: functional;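 further: firefly luciferase luminescence from reporter carrying the Shn3 3'UTR in osteoblasts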
[7] = loss of viability in HepG2 cells – cell-based, CellTiter-Glo, cherry-picked, cytotoxicity control for Shn3 inhibitor project, dose response (AID 624134); assay type: functional
[8] = non-specific 3'UTR reporter inhibition in Clone20-Shn3RL – cell-based, Renilla luciferase, cherry-picked, counter-screen for Shn3 inhibitor project, dose response (AID 624133); assay type: functional
[9] = luciferase reporter signal suppression in cells – H4 neuroglioma cells, luminescence, dose response (AID 1990); assay type: functional, cell-based
[10] = Luminescence Cell-Based Dose Response HTS to Identify Inhibitors of 5'UTR Stem-Loop Driven Prion Protein mRNA Translation in H4 Neuroglioblastoma Cells. [Related pubchem assays: 1827 (Project Summary), 1813 (Primary HTS)]; assay type: functional
[11] = alpha-synuclein stem-loop luciferase translation blockers – H4 neuroglioma cells, luminescence, confirmation (AID 1988); assay type: functional, cell-based
[12] = Trypanosoma cruzi growth suppression in host cells – NIH3T3 host cells, beta-gal luminescence, confirmation (AID 2044); assay type: functional, cell-based;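 further: intracellular parasites grown in NIH/3T3 mouse fibroblasts as host cells; luminescent beta-galactosidase reporter signal from transgenic T. cruzi replicating inside host cells; inhibitors lower the luminescence signal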
BJ [13] = test: BJ-TERT fibroblast viability loss – cell-based, RAS-independent, luminescence, dose response (AID 1933); assay type: functional; details: Homo sapiens
BJ [14] = test: cells; assay type: functional, cell-based; details: Homo sapiens
BJ [15] = test: BJ-TERT-LT-ST fibroblast viability loss – cell-based, RAS-independent, luminescence, dose response (AID 1935); assay type: functional; details: Homo sapiens;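 further: BJ fibroblasts immortalized with TERT plus LT and ST oncogenes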
[16] = DRD fibroblast viability loss – cell-based, non-viral oncogenic, luminescence, dose response (AID 1934); assay type: functional; details: Homo sapiens

Structure (SMILES): O=C(NN=Cc1c(O)ccc2ccccc12)c1ccc2c(c1)OCO2
- IC50 [1]: > 80 µM (inactive)

Structure (SMILES): COC(CN(C(=O)CCl)C(C(=O)NC1CCCCC1)c1ccc(Cl)cc1)OC (centres undefined)
- EC50 (cells [2]): > 350 µM (not active)
- EC50 (cells [3]): > 350 µM (not active)
- AC50 [4]: 15.8 µM (active)
- EC50 (Protein RecA): 1.81 µM (active)

Structure (SMILES): O=C(C[n+]1cc(-c2ccccc2)n2c1CCC2)Nc1nc(-c2ccccc2)cs1
- IC50 (Coagulation factor XII): > 50 µM (inactive)

Structure (SMILES): CCN(Cc1ccccc1)C(=O)CCNS(=O)(=O)c1ccc2c(c1)CC(C)N2C(C)=O (centres undefined)
- EC50 (cells [2]): > 350 µM (not active)
- EC50 (cells [3]): > 350 µM (not active)

Structure (SMILES): COc1ccc2nc(NC(=O)Nc3ccccc3OC)sc2c1
- EC50 (cells [2]): > 350 µM (not active)
- EC50 (cells [3]): 4.4 µM (active)

Structure (SMILES): CC(C)(C)c1cc(C(=O)N/N=C/c2ccccc2O)n(-c2ccccc2)n1
- AC50 [5]: 3.05 µM (active)
- AC50 (INS1): 3.37 µM (active)
- AC50 [6]: 2.25 µM (active)
- AC50 [7]: 5.66 µM (active)
- AC50 [8]: 2.18 µM (active)

Structure (SMILES): COc1cccc2sc(NC(=O)c3ccc(S(=O)(=O)N4CCOCC4)cc3)nc12
- IC50 (Coagulation factor XII): > 50 µM (inactive)

Structure (SMILES): Cc1c(C(=O)OCC(C)C)[nH]c2c1C(=O)CC(c1cccs1)C2 (centres undefined)
- EC50 [9]: 8.93 µM (inconclusive)
- EC50 [10]: > 60 µM (not active)
- EC50 [11]: 3.13 µM (active)
- EC50 [12]: 4.91 µM (active)
- IC50 [1]: > 80 µM (inactive)

Structure (SMILES): Cc1nc(-c2ccc(C(=O)Nc3ccccc3F)cc2)cs1
- EC50 (BJ [13]): 13.7 µM (active)
- EC50 (BJ [14]): 10.8 µM (active)
- EC50 (BJ [15]): 19.9 µM (active)
- EC50 [16]: 11 µM (active)

Structure (SMILES): COC(=O)c1ccc(C)c(NC(=O)CN(c2cc(OC)ccc2OC)S(C)(=O)=O)c1
- EC50 (BJ [13]): > 150 µM (not active)
- EC50 (BJ [14]): > 150 µM (not active)
- EC50 (BJ [15]): > 150 µM (not active)
- EC50 [16]: > 150 µM (inconclusive)
